Results published in patent US7776946B2, “Aqueous emulsion polymerization of fluorinated monomers using a fluorinated surfactant” (3M Innovative Properties Company, priority 2005, dated 2010).

Assay: Determination of bio-accumulation: urinary clearance pharmacokinetic study in rats
Assay type: in vivo, male Sprague Dawley rats
Conditions: 73 micro Moles per kg body weight, oral gavage; for T½ (renal half-life): exponential least squares curve fitting of urine concentration (fluorine NMR); for % Recovery (96 h): parent compound in urine up to 96 h; for Compound-related Effects: clinical signs, gross necropsy at 96 hours post-dose
From the text: Animals we observed throughout the study for clinical signs of toxicity.

SMILES	T½ (renal half-life) [h]	% Recovery (96 h) [%]	Compound-related Effects
N.O=C(O)C(F)(F)C(F)(F)OC(F)(F)F [Compound 1, CF3—O—CF2—CF2—COONH4]	11	100	–
N.O=C(O)C(F)(F)C(F)(F)OC(F)(F)C(F)(F)F [Compound 2, C2F5—O—CF2—CF2—COONH4]	10	100	–
N.O=C(O)C(F)(F)C(F)(F)OC(F)(F)C(F)(F)C(F)(F)F [Compound 3, C3F7—O—CF2—CF2—COONH4]	12	82	–
N.O=C(O)C(F)(F)C(F)(F)OC(F)(F)C(F)(F)C(F)(F)C(F)(F)F [Compound 4, C4F9—O—CF2—CF2—COONH4]	31	42	Hepatomegaly
N.O=C(O)C(F)(F)C(F)(F)C(F)(F)C(F)(F)C(F)(F)C(F)(F)C(F)(F)F [Compound C-1, C7F15COONH4, reference compound]	~550	6	Hepatomegaly
